Measurements published in patent US9718771B2, “Aniline derivative, pharmaceutical composition containing same, and use thereof” (Kissei Pharmaceutical Co., Ltd., priority 2014, dated 2017).

Biological target: human S1P1 (EDG-1) (Homo sapiens (Human), UniProt P21453)
Experiment: Confirmation test of antagonistic activity for human S1P1 receptor (35S-GTP binding, cell membranes)
Assay type: biochemical
Conditions: inhibition of 35S-GTP binding induced by S1P1 receptor selective agonist; HEK293 membranes expressing human S1P1
Experimental: Confirmation Test of Antagonistic Activity for Human S1P1 Receptor
Test compounds were tested by reduction of functional binding activity of ^35S-GTP (guanosine 5′-O-[gamma-thio] triphosphate, PerkinElmer) to G protein using cell membranes expressing human S1P1 (EDG-1). S1P1-pcDNA3.1/V5-His-Topo vector was prepared by inserting cDNA (NM_001400) encoding human S1P1 into the expression vector, pcDNA3.1/V5-His-Topo (registered trademark) (Invitrogen). Next, the above S1P1-pcDNA3.1 vector was transfected into HEK293 cells by Lipofectamine2000 (registered trademark) (Invitrogen). The transfected cells were incubated with D-MEM liquid medium each containing 10% FBS (Fetal bovine serum), 100 U/mL penicillin, 100 μg/mL streptomycin and 1 mg/mL Geneticin (registered trademark) (Invitrogen) in an incubator under the condition of 5% CO2 at 37° C. and Geneticin (registered mark)-resistant cell line stably expressing S1P1 were obtained. The obtained stably S1P1-expressing cells were incubated with D-MEM liquid medium each containing 10% FBS and 0.5 mg/mL Geneticin (registered trademark) in an incubator under the condition of 5% CO2 at 37° C. The cells grown to confluence were harvested by a buffer solution containing 50 mM Tris, 2 mM EDTA (ethylmediaminetetraacetic acid) and 125 mM sodium chloride, and centrifuged at 1880×g, 4° C. for 10 minutes. After a supernatant was removed, a cell pellet was resuspended by the same buffer solution. For making cell membranes fragile, this cell suspension was frozen at −80° C. and then thawed. The cells were centrifuged at 1880×g, 4° C. for 10 minutes, and a supernatant was removed. The cell pellet was suspended by adding the same buffer solution and a fracture solution (10 mM sodium bicarbonate and 5 mM EDTA, pH 7.5) at a ratio of 2:1. The cells were fractured by subjecting the cell suspension to ultrasonication, and a cell membrane fraction was isolated by centrifugation at 1880×g, 4° C. for 10 minutes and ultracentrifugation of the supernatant at 80000×g, 4° C. for 30 minutes. A pellet of the cell membrane fraction was suspended by the fracture solution containing protease inhibitor cocktail (Roche) and stored at −80° C. until use. A protein concentration of the cell membrane fraction was determined using BCA Protein Assay Kit (Pierce) in accordance with an attached protocol.
Inhibitory activity evaluation was performed by multi-screen (registered trademark) HTS 96-well plate (Millipore) using the cell membrane fraction stably expressing S1P1 obtained by the above operation. 25 μL of assay solution (50 mM Tris, 100 mM sodium chloride, 5 mM magnesium chloride, 1 mM EDTA, 1 mM DTT (dithiothreitol), 10 μM GDP (guanosine diphosphate) and 0.5% BSA (bovine serum albumin), pH 7.4), 25 μL of test compounds solution diluted by assay solution and 25 μL of the membrane fraction (0.2 μg protein/μL) were added to each well, and the mixture was gently shaken at room temperature: for 30 minutes. Then, 25 μL of ^35S-GTP, and 25 μL of 50 nM S1P1 receptor selective agonist (1-[4-(4-phenyl-5-trifluoromethylthiophen-2-ylmethoxy)benzyl]azetidine-3-carboxylic acid, “J. Med. Chem.”, 2004, vol. 47, pp. 6662-6665, compound 18) were added to each well, respectively, and it was reacted at room temperature for 60 minutes. After the reaction, a reaction solution of each well was suction-filtered. After suction filtration, ice-colded wash solution (50 mM Tris, 100 mM sodium chloride, […] and 1 mM EDTA, pH 7.4) was added to each well, and moreover filters were washed by suction filtration. This wash procedure was performed three times. A bottom of the plate containing the filters was dried at 60° C. After drying, 30 μL of MicroScinti-40 (PerkinElmer) was added to each well, and the radioactivity adsorbed on the filter was determined by TopCount NXT (registered trademark) (PerkinElmer) after shaking for 30 minutes at room temperature. […]

human S1P1 (EDG-1), sequence (P21453 whole entry): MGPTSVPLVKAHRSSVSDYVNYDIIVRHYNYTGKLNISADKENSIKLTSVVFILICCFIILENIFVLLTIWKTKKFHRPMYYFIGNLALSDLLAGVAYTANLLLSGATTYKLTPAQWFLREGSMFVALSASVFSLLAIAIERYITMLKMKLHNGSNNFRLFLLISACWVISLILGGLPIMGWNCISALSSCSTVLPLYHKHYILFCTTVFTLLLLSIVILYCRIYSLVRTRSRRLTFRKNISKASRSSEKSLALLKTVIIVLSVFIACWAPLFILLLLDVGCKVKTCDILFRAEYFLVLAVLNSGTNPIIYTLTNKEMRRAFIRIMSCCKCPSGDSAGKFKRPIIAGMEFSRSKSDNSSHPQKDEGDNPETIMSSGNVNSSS

SMILES | IC50
CCN(c1ccc(Cl)c(C(F)(F)F)c1)C(C)c1ccc(Cl)c(CN2CC(C(=O)O)C2)c1 (centres unmarked) [Compound 2-34, 1-(2-Chloro-5-{1-[(4-chloro-3-trifluoromethylphenyl)(ethyl)amino]ethyl}-benzyl)azetidine-3-carboxylic acid] | 1.5 nM
Cc1cc(N(C)C2CCc3c(CN4CC(C(=O)O)C4)cccc32)ccc1Cl (centres unmarked) [Compound 2-17] | 27.3 nM
CCN(c1ccc(Cl)c(C)c1)[C@H](C)c1cccc(CN2CC(C(=O)O)C2)c1 [Compound 6-5] | 1.2 nM
CCN(Cc1ccc(C)c(CN2CC(C(=O)O)C2)c1)c1ccc(Cl)c(C)c1 [Compound 2-1, 1-(5-{[(4-Chloro-3-methylphenyl)(ethyl)amino]methyl}-2-methylbenzyl)azetidine-3-carboxylic acid] | 5.3 nM
CCN(c1ccc(Cl)c(C)c1)C(C)c1ccc(C(F)(F)F)c(CN2CC(C(=O)O)C2)c1 (centres unmarked) [Compound 2-43, 1-(5-{1-[(4-Chloro-3-methylphenyl)(ethyl)amino]ethyl}-2-trifluoromethylbenzyl)azetidine-3-carboxylic acid] | 3.5 nM
Cc1cc(CN2CC(C(=O)O)C2)c2c(c1)C(N(C)c1ccc(Cl)c(C)c1)CC2 (centres unmarked) [Compound 2-9] | 22.2 nM
CCN(c1ccc(Cl)c(C(F)(F)F)c1)C(CO)c1ccc(C)c(CN2CC(C(=O)O)C2)c1 (centres unmarked) [Compound 6-2] | 2.5 nM
CCN(c1ccc(Cl)c(C(F)(F)F)c1)C(C)c1ccc(CO)c(CN2CC(C(=O)O)C2)c1 (centres unmarked) [Compound 5-1, 1-(5-{1-[(4-Chloro-3-trifluoromethylphenyl)(ethyl)amino]ethyl}-2-hydroxymethyl-benzyl)azetidine-3-carboxylic acid] | 4.4 nM
CCC(c1ccc(C)c(CN2CC(C(=O)O)C2)c1)N(CC)c1ccc(Cl)c(C)c1 (centres unmarked) [Compound 2-46, 1-(5-{1-[(4-Chloro-3-methylphenyl)(ethyl)amino]propyl}-2-methylbenzyl)-azetidine-3-carboxylic acid] | 1.9 nM
Cc1cc(N(Cc2ccc(C)c(CN3CC(C(=O)O)C3)c2)C(C)C)ccc1Cl [Compound 2-3] | 2.8 nM
Cc1cc(N(C)Cc2ccc(C)c(CN3CC(C(=O)O)C3)c2)ccc1Cl [Compound 2-2] | 6.7 nM
CCN(c1ccc(Cl)c(C(F)(F)F)c1)C1CCc2c(CN3CC(C(=O)O)C3)cccc21 (centres unmarked) [Compound 2-24] | 3.7 nM
CCC(c1cccc(CN2CC(C(=O)O)C2)c1)N(CC)c1ccc(Cl)c(C)c1 (centres unmarked) [Compound 2-12] | 6.8 nM
CCN(c1ccc(Cl)cc1)C(C)c1ccc(C)c(CN2CC(C(=O)O)C2)c1 (centres unmarked) [Compound 2-47] | 1.8 nM
Cc1ccc2c(c1CN1CC(C(=O)O)C1)CCC2N(C)c1ccc(Cl)c(C(F)(F)F)c1 (centres unmarked) [Compound 2-10, 1-{1-[(4-Chloro-3-trifluoromethylphenyl)(methyl)amino]-5-methylindan-4-ylmethyl}azetidine-3-carboxylic acid] | 2.5 nM
Cc1ccc(C(C)N(C)c2ccc(C#N)c(C(F)(F)F)c2)cc1CN1CC(C(=O)O)C1 (centres unmarked) [Compound 2-44] | 9 nM
CCN(c1ccc(Cl)c(C)c1)C1CCc2c1ccc(F)c2CN1CC(C(=O)O)C1 (centres unmarked) [Compound 2-15, 1-{1-[(4-Chloro-3-methylphenyl)(ethyl)amino]-5-fluoroindan-4-ylmethyl}-azetidine-3-carboxylic acid] | 2.5 nM
CCN(c1ccc(Cl)c(C)c1)C(C)c1ccc(F)c(CN2CC(C(=O)O)C2)c1 (centres unmarked) [Compound 2-31, 1-(5-{1-[(4-Chloro-3-methylphenyl)(ethyl)amino]ethyl}-2-fluorobenzyl)-azetidine-3-carboxylic acid] | 5.7 nM
CCN(c1ccc(Cl)c(C)c1)C1CCc2c(CN3CC(C(=O)O)C3)cc(F)cc21 (centres unmarked) [Compound 2-16] | 3.3 nM
C=Cc1ccc(C(C)N(CC)c2ccc(Cl)c(C(F)(F)F)c2)cc1CN1CC(C(=O)O)C1 (centres unmarked) [Compound 4-1, 1-(5-{1-[(4-Chloro-3-trifluoromethylphenyl)(ethyl)amino]ethyl}-2-vinylbenzyl)-azetidine-3-carboxylic acid] | 1.2 nM
